# Columns and labels:
# [1] = tested on: genotype 2a HCV (JFH1)-infected Huh7 cells; experiment: HCV RNA level in Huh7 cells infected with HCV (JFH1); format: cell-based, hepatitis C virus genotype 2a; conditions: JFH1-infected Huh7 cell, 500 nM, 72 hours
# Protocol: To do so, after the two cell lines were treated with the compound #17 at higher concentrations (60 and 100 μM) than 20 μM for 48 hours, an HCV RNA genome level was checked by a real-time RT-PCR analysis. A value was a mean±standard deviation (SD) of three independent measurements. HCV RNA titer was quantified by real-time PCR analysis. Three independent experiments were performed in triplicate.
# Full-length, infectious HCV RNA of the genotype 2a HCV clone JFH1 was prepared by in vitro transcription using the MEGAscript T7 kit (Ambion, Austin, Tex., USA) and electroporated into Huh7 cells as described previously. Briefly, at 72 h post electroporation, culture medium was collected, cleared by low-speed centrifugation, and passed through a 0.45-μm filter (Millipore, Billerica, Mass., USA) before being used for infection of Huh7 cells. Cells were infected with HCV at a multiplicity of infection of 0.3 by adsorption for 3 h with periodic rocking, then washed three times with phosphate-buffered saline (PBS) and maintained in complete DMEM. […]
# Total RNA was extracted from R-1 or HCV (JFH1)-infected cells using TRIzol LS reagent (Invitrogen, Carlsbad, Calif., USA) and purified according to the manufacturer's instructions. HCV RNA levels were quantified by RT-PCR using a primer pair and TaqMan probe targeting a region within the HCV 5′-UTR as described previously. […] Assays were performed using the DyNAmo Probe 2-step qRT-PCR Kit (Finnzymes, Espoo, Finland) and a CHROMO4 continuous fluorescence detector (Bio-Rad, Hercules, Calif., USA), according to the manufacturer's instructions.
# In order to analyze whether or not 17-DMAG can inhibit replication in a cell infected with HCV, an experiment was carried out with the genotype 2a HCV infectious clone JFH1, which produces infectious virions in Huh7 or Huh7-derived cell lines. […] After 72 hours, total cellular RNA was extracted and HCV remaining in the infected cell was analyzed by quantitative RT-PCR.
# PRK2 = PRK2 level in Huh7 cell by immunoblotting; format: cell-based; conditions: 500 nM, 48 hours
# HCV NS5B = experiment: NS5B phosphorylation in Huh7TR-NS cell (anti-p-Ser immunoprecipitation, anti-NS5B immunoblot); format: cell-based, hepatitis C virus; conditions: 17-DMAG 50 nM or HA1077 20 μM, 48 hours
# Protocol: The human hepatoma stable cell lines Huh7TR-4 and Huh7TR-NS [17], which express the tetracycline repressor and the HCV NS proteins (NS3-NS5) in a tetracycline-inducible manner, respectively, were maintained in the presence of blasticidin S (10 μg/mlL and Zeocine (100 μg/mL). NS protein expression in Huh7TR-NS was induced by addition of 1 μg/mL tetracycline for 24 h. The Huh7 cell-derived cell line R-1, supporting stable, autonomous replication of genotype 1b HCV subgenomic replicon RNA, was described previously. 17-DMAG, the PRK2 inhibitor, HA1077, and the inhibitor of phosphatidylinositol 3-kinase (PI3K), LY294002, were obtained from Sigma-Aldrich (St. Louis, Mo., USA) and Calbiochem Inc. (La Jolla, Calif., USA), and Biomol (Plymouth Meeting, Pa., USA), respectively. IFN-α was purchased from Sigma-Aldrich (1-4276).
# For co-immunoprecipitation experiment, the cells were resuspended in lysis buffer A (100 mM Tris-HCl, pH 8.0, 150 mM NaCl, 1% Triton X-100, 10 mM NaF, 1 mM Na3VO4, 17.5 mM β-glycerophosphate) supplemented with an EDTA-free protease inhibitor cocktail (Roche Applied Science, Indianapolis, Ind., USA) and incubated on ice for 30 min. […]
# Then, treatment with 17-DMAG (50 nM) or HA1077 (20 μM), a PRK2 inhibitor, was carried out for 48 hours. […] A case without treatment with an inhibitor was expressed as (−).
compound,measurement,setting,value
"CO[C@H]1/C=C\C=C(/C)C(=O)NC2=CC(=O)C(NCCN(C)C)=C(C[C@@H](C)C[C@H](OC)[C@H](O)[C@@H](C)/C=C(\C)[C@@H]1OC(N)=O)C2=O [17-DMAG, 17-(dimethylaminoethylamino)-17-demethoxygeldanamycin]",decrease of level of viral RNA,[1],about 87%
same,decrease of PRK2 level as compared with non-treated control,PRK2,about 68%
same,NS5B phosphorylation,HCV NS5B,inhibited NS5B phosphorylation

# Reference: US9249159B2, “Composition for treating hepatitis C virus, regulating phosphorylation of replicase” (Industry-Academic Cooperation Foundation, Yonsei University, priority 2011, dated 2016)
